These results are taken from patent publication US12297184B2 (Tesaro, Inc., priority 2018, dated 2025).

In brackets after ≈: the same amount, converted by molar mass.

Data set [1] in a line: Hygroscopicity by gravimetric (GVS) or dynamic (DVS) vapour sorption. The class given is physicochemical. Conditions: for % Mass increase: at 90% RH, 25° C., GVS (camphorates, camsylate), DVS (mandelate); for Hygroscopicity (in words): from % mass increase at 90% RH. The method, then: Typically, approximately 10-20 mg of sample was placed into a mesh vapour sorption balance pan and loaded into an IGASorp Moisture Sorption Analyser balance by Hiden Analytical. The sample was subjected to a ramping profile from 40-90% relative humidity (RH) at 10% increments, maintaining the sample at each step until a stable weight had been achieved (98% step completion, minimum step length 30 minutes, maximum step length 60 minutes) at 25° C. After completion of the sorption cycle, the sample was dried using the same procedure to 0% RH, and finally taken back to the starting point of 40% RH. Two cycles were performed. The weight change during the sorption/desorption cycles were plotted, allowing for the hygroscopic nature of the sample to be determined.
Typically, approximately 10 mg of sample was placed into a mesh vapor sorption balance pan and loaded into a DVS-1/DVS Intrinsic/DVS Advantage dynamic vapor sorption balance by Surface Measurement Systems. The sample was subjected to a ramping profile from 40-90% relative humidity (RH) at 10% increments, maintaining the sample at each step until a stable weight had been achieved (dm/dt 0.004%, minimum step length 30 min, maximum step length 500 min) at 25° C. After completion of the sorption cycle, the sample was dried using the same procedure to 0% RH and then a second sorption cycle back to 40% RH. Two cycles were performed. The weight change during the sorption/desorption cycles were plotted, allowing for the hygroscopic nature of the sample to be determined.
GVS was performed on the crystalline solids produced in Examples land 3. DVS was performed on the crystalline solids produced in Example 2. Table 6 below summarizes the % mass increase observed at 90% RH for the samples.

For data set [2] the following is noted: for Solubility Water / Solubility pH 1 / Solubility pH 4.5 / Solubility pH 6.8: 24 h.
Protocol: (§1) In an initial procedure (performed in triplicate), the salts were added in small aliquots to deionised water or to buffer solutions (10 mL) until saturation was achieved (˜20 mg was initially added), and the resulting slurry was shaken at 37° C. for 24 h. The following buffers (50 mM in each case) were used: • pH 1 25 mL KCl solution (1.49 g dissolved in 100 mL water) and 42.5 mL HCl solution (1.66 mL of concentrated HCl (˜37%) made up to 100 mL with water) were added together and made up to 100 mL with water; • pH 4.5 anhydrous sodium acetate (1.07 g) was dissolved in water (about 150 mL) before adding 5.9 mL acetic acid solution (11.6 mL glacial acetic acid made up to 100 mL with water). The resulting solution was made up to 500 mL with water; and • pH 6.8 25 mL of KH2PO4 solution (2.72 g dissolved in about 80 mL water and made up to 100 mL with water) and 11.2 mL of NaOH solution (800 mg of sodium hydroxide was dissolved and diluted to 100 mL with water) were added together and made up to 100 mL with water.
(§2) Any solids which were isolated by filtration were assessed by XRPD to determine whether the form of the material had changed.
(§3) The solubility assessment of these samples was repeated using the following procedure (samples prepared in triplicate):
(§4) The appropriate salt (30 mg) was weighed into a vial and water or buffer solution (1 mL) was added. The samples were shaken at 37° C. for 24 h. After 1 h and after about 17 h, further salt was added to the mandelate samples (except those in pH 1 buffer solution) to give an approximate 50-60 mg of solids. […] The samples were analysed as described above.
Another data set has as its system PARP activity. Conditions: read-out: inhibition of PARP activity EC50; whole cell assay; cited from earlier work.
Data set [3] concerns cancer cells having mutant BRCA1 and BRCA2. Conditions: read-out: inhibition of proliferation CC50; cited from earlier work.
A further data set can be described thus: physchem. To be noted: 37 °C, thermodynamic from solid.
For data set [4] the following is noted: drug substance; cited from earlier work.

Protocol for physchem: as §1, §2, §3, §4

Take `NC(=O)c1cccc2cn(-c3ccc(C4CCCNC4)cc3)nc12` [(+)-Camphorate, 2-{4-[(3S)-piperidin-3-yl]phenyl}-2H-indazole-7-carboxamide (niraparib) (1R,3S)-(+)-camphorate]: in data set [1], the “% Mass increase” value is given as ~0.3%. Also, in data set [2], the “Solubility Water” value came out at 200 µg/mL (≈ 0.624 mM), the “Solubility pH 1” value stood at 21.4 mg/mL, the “Solubility pH 4.5” value was 0.3 mg/mL and the “Solubility pH 6.8” value came to 1.2 mg/mL.
On to `NC(=O)c1cccc2cn(-c3ccc(C4CCCNC4)cc3)nc12` [(−)-Camphorate, 2-{4-[(3S)-piperidin-3-yl]phenyl}-2H-indazole-7-carboxamide (niraparib) (1S,3R)-(−)-camphorate], for which the “% Mass increase” value in data set [1] is reported as ~0.2%.
Turning to `NC(=O)c1cccc2cn(-c3ccc(C4CCCNC4)cc3)nc12` [Camsylate, 2-{4-[(3S)-piperidin-3-yl]phenyl}-2H-indazole-7-carboxamide (niraparib) (1S)-(+)-camsylate], in data set [1], the “% Mass increase” value is ~1.3% and the “Hygroscopicity (in words)” value is listed as “slightly hygroscopic”. In data set [2], the “Solubility Water” value is 5900 µg/mL (≈ 18.4 mM), the “Solubility pH 1” value is 11.5 mg/mL, the “Solubility pH 4.5” value came to 7.1 mg/mL and the “Solubility pH 6.8” value came to 1.7 mg/mL.
In the case of `NC(=O)c1cccc2cn(-c3ccc(C4CCCNC4)cc3)nc12` [Mandelate, 2-{4-[(3S)-piperidin-3-yl]phenyl}-2H-indazole-7-carboxamide (niraparib) (R)-(−)-mandelate], in data set [1], the “% Mass increase” value is ~0.07% and the “Hygroscopicity (in words)” value is on record as “not hygroscopic”. Besides, in data set [2], the “Solubility Water” value was found to be 45400 µg/mL (≈ 142 mM), the “Solubility pH 1” value is 163.1 mg/mL, the “Solubility pH 4.5” value worked out at 53.8 mg/mL and the “Solubility pH 6.8” value worked out at 7.8 mg/mL.
`NC(=O)c1cccc2cn(-c3ccc([C@@H]4CCCNC4)cc3)nc12` [Niraparib, 2-{4-[(3S)-piperidin-3-yl]phenyl}-2H-indazole-7-carboxamide]: the concentration giving a half-maximal response (EC50) in the data set with PARP activity is 4 nM. Also, the CC50 in data set [3] is 10 to 100 nM.
On to `NC(=O)c1cccc2cn(-c3ccc([C@@H]4CCCNC4)cc3)nc12` [Tosylate, 2-{4-[(3S)-piperidin-3-yl]phenyl}-2H-indazole-7-carboxamide 4-methylbenzenesulfonate hydrate 1:1:1], for which the solubility at 24 h in the data set “physchem” (pH 1, simulated gastric fluid, Solubility pH 1) is 900 µg/mL; in the data set “physchem” (pH 6.8, aqueous buffer, Solubility pH 6.8), 900 µg/mL; in the data set “physchem” (water, Solubility Water) it was 500 µg/mL. In data set [4], the “Aqueous solubility (background statement)” value is recorded as “low aqueous solubility”. Moreover, in data set [4], the “Hygroscopicity (background statement)” value was “non-hygroscopic”.
As to camphorate, in data set [1], the “Hygroscopicity (in words)” value is listed as “not hygroscopic”. Also, the “Solubility (in words, reading of Table 8)” value in data set [2] (comparison with tosylate salt, especially in low pH media) is given as “greater solubility than the tosylate salt”.
